Source: patent publication US20110287933A1, “Herbicidal composition for tolerant or resistant oilseed rape crops” (BAYER CROPSCIENCE AG, priority 2010, published 2011)

Legend:
Format in all cases: in vivo
Lolium multiflorum = assay: Greenhouse trial, post-emergence herbicidal efficacy against Lolium multiflorum; conditions: scoring 14 days after application, g of ai/ha: A1.1 100, B1.1 5, C10 5, C11 15, combinations at the same rates
Protocol: (§1) The trials were carried out under greenhouse conditions (test pots, diameter 8 cm, spray application using 300 l of water/hectare, 2 repetitions, 6 to 8 plants per pot). Application was by post-emergence treatment; the species of the harmful plants and their stage of growth at the time of treatment are, indicated in the individual results tables. The application rates of the herbicidally active compounds used on their own or in combinations are likewise listed in the individual results tables.
(§2) Scoring was by visual comparison of the treated with the untreated controls (0-100% scale, 14-19 days after the application) (see details in the respective tables). The results (means for all plants per pot and means of two repetitions per pot and treatment) are lised in Tables 4 to 6 below.
(§3) 4.2 Abbreviations Used in Tables 4 to 6 • application rate g/ai=application rate in grams of active compound per hectare • ai=active ingredient (of an active compound content of 100%) • GA=glufosinate-ammonium • GA-tolerant=oilseed rape which is tolerant to GA (GMO) • E^C=expected value according to Colby, (E^C=A+B−A×B/100)=for ternary combinations: (A+B)+C−(A+B)×C/100 • E^A=expected value according to the addition method (E^A=A+B) • A=difference (%) between observed value−%−vs. expected value (%) (observed value minus expected value) • examination:—observed values for (A), (B) and (A)+(B) in % • scoring:—observed value (%) greater >than E^C/E^A: ->synergism (+Δ) • observed value (%) equal to =E^c/E^A->additive effect (+−0Δ) • observed value (%) smaller <than E^A/E^c->antagonism (−Δ)

Matricaria chamomilla = assay: Greenhouse trial, post-emergence herbicidal efficacy against Matricaria chamomilla; conditions: scoring 19 days after application, g of ai/ha: A1.1 100, B1.1 5, C12 50, combinations at the same rates
Protocol: as §1, §2, §3

[1] = system: oilseed rape (GA-tolerant); assay: Greenhouse trial, crop plant compatibility in oilseed rape (GA-tolerant); conditions: 2-4 oilseed rape-leaf stage
Protocol: The trials were carried out under greenhouse conditions (test pots, diameter 8 cm, spray application using 300 l of water/hectare, 2 repetitions, 6 to 8 plants per pot).
Scoring was by visual comparison of the treated with the untreated controls (0-100% scale, 14-19 days after the application) (see details in the respective tables).

Viola arvensis = assay: Greenhouse trial, post-emergence herbicidal efficacy against Viola arvensis; conditions: scoring 14 days after application, g of ai/ha: A1.1 100, B1.1 5, C1 25, C2 100, C3 12.5, C4 2.5, C5 50, C6 125, C7 250, C8 250, C9 5, combinations at the same rates
Protocol: as §1
Scoring was by visual comparison of the treated with the untreated controls (0-100% scale, 14-19 days after the application) (see details in the respective tables). The results (means for all plants per pot and means of two repetitions per pot and treatment) are lised in Tables 4 to 6 below. […]

[2] = Table 4, post-emergence, scoring 14 days after application, g of ai/ha: A1.1 100, B1.1 5, C1 25, C2 100, C3 12.5, C4 2.5, C5 50, C6 125, C7 250, C8 250, C9 5, combinations at the same rates, (75)* = selective only in IMI × GA tolerant crop plants
[3] = Table 5, post-emergence, scoring 14 days after application, g of ai/ha: A1.1 100, B1.1 5, C10 5, C11 15, combinations at the same rates
[4] = Table 6, post-emergence, scoring 19 days after application, g of ai/ha: A1.1 100, B1.1 5, C12 50, combinations at the same rates

Row | SMILES | Herbicidal efficacy % Lolium multiflorum (Lolium multiflorum) [%] | Damage to crop plants (%) oilseed rape (GA-tolerant) (≦15-20% acceptable) [1, 2] | also measured
1 | CP(=O)(O)CCC(N)C(=O)O (centres unmarked) [A1.1, glufosinate-ammonium] | 20 | 10% | Herbicidal efficacy % Matricaria chamomilla (Matricaria chamomilla): 95%; Damage to crop plants (%) oilseed rape (GA-tolerant) (≦15-20% acceptable) [1, 3]: 10%; Damage to crop plants (%) oilseed rape (GA-tolerant) (≦15-20% acceptable) [1, 4]: 10%
2 | COC(=O)c1nc(-c2ccc(Cl)c(OC)c2F)cc(N)c1Cl [B1.1, methyl 4-amino-3-chloro-6-(4-chloro-2-fluoro-3-methoxyphenyl)pyridine-2-carboxylate] | 0 |  | Herbicidal efficacy % Matricaria chamomilla (Matricaria chamomilla): 40%
3 | O=C(O)c1nc(Cl)ccc1Cl [C1, clopyralid] |  | 0% | 
4 | CCOC(=O)[C@@H](C)Oc1ccc(Oc2nc3ccc(Cl)cc3o2)cc1 [C3, fenoxaprop-P-ethyl] |  | 15% | Herbicidal efficacy % Viola arvensis (Viola arvensis): 0%
5 | C[C@@H](Oc1ccc(Oc2ncc(C(F)(F)F)cc2Cl)cc1)C(=O)O [C4, haloxyfop-p] |  |  | Herbicidal efficacy % Viola arvensis (Viola arvensis): 0%
6 | Cc1cccc(C)c1N(Cn1cccn1)C(=O)CCl [C5, metazachlor] |  | 0% | 
7 | CCCCCCCCSC(=O)Oc1cc(Cl)nnc1-c1ccccc1 [C7, pyridate] |  | 0% | 
8 | CCCN(CCC)c1c([N+](=O)[O-])cc(C(F)(F)F)cc1[N+](=O)[O-] [C8, trifluralin] |  | 0% | 
9 | COCc1cnc(C2=NC(C)(C(C)C)C(=O)N2)c(C(=O)O)c1 (centres unmarked) [C9, imazamox] |  | (75)* % | 
10 | CCSC(C)CC1CC(=O)C(/C(CC)=N/OC/C=C/Cl)=C(O)C1 (centres unmarked) [C10, clethodim] | 50 |  | Damage to crop plants (%) oilseed rape (GA-tolerant) (≦15-20% acceptable) [1, 3]: 0%
11 | CCCC(=NOCC)C1=C(O)CC(C2CCCSC2)CC1=O (centres unmarked) [C11, cycloxydim] | 70 |  | 
12 | CC1(C)CON(Cc2ccccc2Cl)C1=O [C12, Clomazone] |  |  | Herbicidal efficacy % Matricaria chamomilla (Matricaria chamomilla): 0%; Damage to crop plants (%) oilseed rape (GA-tolerant) (≦15-20% acceptable) [1, 4]: 15%
